The values that follow are results of earlier work, collected in patent publication US10806143B2, “Herbicidal composition in granular form” (priority 2009, dated 2020).

For the data set the following is noted: at 20° C.

As for `CCOC(=O)C(Cl)Cc1cc(-n2nc(C)n(C(F)F)c2=O)c(F)cc1Cl` (stereo not shown) [carfentrazone-ethyl, ethyl 2-chloro-3-[2-chloro-5-(4-difluoromethyl-3-methyl-5-oxo-4,5-dihydro-[1,2,4]triazol-1-yl)-4-fluorophenyl]propionate], the water solubility was 22 milligrams per liter.
